# pIC50: −log10 of the molar value.
# Test: Inhibition of gamma secretase assessed as reduction in Abeta42 production
row,Structure (SMILES),pIC50
1,CC(C)CC(C(=O)O)c1cc(/C=C/c2ccc(-c3ccccc3)cc2)cc(-c2ccc(Cl)c(C(F)(F)F)c2)c1 (centres undefined),6.82
2,COc1cc(Nc2nc3n(n2)CCCC[C@H]3c2ccc(OCC(F)(F)F)cc2)ccc1-n1cnc(Cl)c1,8.30
3,Cc1cn(-c2ccc(Nc3ncn(Cc4cccc(Cl)c4)n3)cc2C#N)cn1,6.66
4,COc1cc(NC(=O)C(C)c2ccc3c(c2)[nH]c2ccc(Cl)cc23)ccc1-c1ccnc(C)c1 (centres undefined),6.97
5,COc1cc(Nc2nc3n(n2)CC[C@@](C)(O)C[C@@H]3c2ccc(F)cc2)ccc1-n1cnc(Cl)c1,8.70
6,CC(C)CCN1C(c2cc(-c3ccc(C(F)(F)F)cc3)cc(C(CC(C)C)C(=O)O)c2)CCCC1C(F)(F)F (centres undefined),6.96
7,COc1cc(/C=C/c2nc(-c3ccccc3)c[nH]2)ccc1-n1cnc(C)c1,7.12
8,CC(C)CC(C(=O)O)c1cc(-c2ccc(C(F)(F)F)cc2)cc(N2CCC(C(F)(F)F)CC2)c1 (centres undefined),6.36
9,CC(C)CC(C(=O)O)c1cc(Oc2cc(F)cc(F)c2)cc(-c2ccc(C(F)(F)F)cc2)c1 (centres undefined),6.11
10,COc1cc(Nc2nc3n(n2)CCCC[C@@H]3c2ccc(OCC(F)(F)F)cc2)ccc1-n1cnc(Cl)c1,8.00
11,CC(C)CCN(Cc1cc(-c2ccc(C(F)(F)F)cc2)cc(C(CC(C)C)C(=O)O)c1)c1ccc(C(F)(F)F)cc1 (centres undefined),6.60
12,CC(C)CC(C(=O)O)c1cc(C#N)c(OCC2CC2)c(-c2ccc(C(F)(F)F)cc2)c1 (centres undefined),6.56
13,CCCC1CCCCN1c1cc(-c2ccc(C(F)(F)F)cc2)cc(C(CC(C)C)C(=O)O)c1 (centres undefined),6.37
14,CC(C)CC(C(=O)O)c1cc(Cc2cc(F)cc(F)c2)cc(-c2ccc(C(F)(F)F)cc2)c1 (centres undefined),6.13
15,CCC[C@H](C(=O)O)c1cc(OCc2ccccc2)cc(-c2ccc(C(F)(F)F)cc2)c1,5.60
16,COc1cc(/C=C/c2nnc(C(C)c3ccc(F)cc3)[nH]2)ccc1-n1cnc(C)c1 (centres undefined),7.48
17,COc1cc(/C=C/C(=O)NCc2cccc(-c3ccccc3)c2)ccc1-n1cnc(C)c1,7.15
18,COc1cc(Nc2ncc3c(n2)C(c2ccccc2)CCC3)ccc1-c1cnn(C)c1 (centres undefined),6.62
19,N#Cc1cc(Nc2nc3n(n2)CCCC3c2ccc(F)cc2)ccc1-n1cnc(Cl)c1 (centres undefined),6.96

row,Structure (SMILES),pIC50
1,CC(C)CCN1CC(c2cc(-c3ccc(C(F)(F)F)cc3)cc(C(CC(C)C)C(=O)O)c2)CCC1C(F)(F)F (centres undefined),6.43
2,CC(C)c1cc(C(C)C)c(S(=O)(=O)n2c3ccccc3c3ccc(OCC(=O)O)cc32)c(C(C)C)c1,5.12
3,CC(C)CCN(Cc1ccc(C(F)(F)F)cc1)Cc1cc(-c2ccc(C(F)(F)F)cc2)cc(C(CC(C)C)C(=O)O)c1 (centres undefined),6.66
4,CC(C)CC(C(=O)O)c1cc(/C=C/c2cc(F)cc(F)c2)cc(-c2ccc(C(F)(F)F)cc2)c1 (centres undefined),6.35
5,CSc1ccc(/C=C2/C(C)=C(CC(=O)O)c3cc(F)ccc32)cc1 [SULINDAC SULFIDE],4.47
6,COc1nc(/C=C/c2nc3n(n2)CCC[C@@H]3c2ccc(F)cc2)ccc1-n1cnc(C)c1,7.43
7,COc1cc(NC(=O)C(C)N2CCc3ccc(Br)cc3C2)ccc1-c1ccnc(C)c1 (centres undefined),6.74
8,CC(C)CC(C(=O)O)c1cc(-c2ccc(C(F)(F)F)cc2)cc(N(C)c2cc(F)cc(F)c2)c1 (centres undefined),6.35
9,COc1cc(NC(=O)Nc2cc(Cl)ccc2C)ccc1-c1ccnc(C)c1,6.17
10,Cc1cn(-c2ccc(/C=C3\OC(C)(C)CN([C@H](c4cc(F)c(F)c(F)c4)[C@@H](C)O)C3=O)cc2F)cn1,7.39
11,COc1cc(NC(=O)C(C)c2cccc(F)n2)ccc1-c1ccnc(C)c1 (centres undefined),6.25
12,COc1cc(Nc2nc(OC(C)C)nc(N(C)c3ccc(Cl)cc3)n2)ccc1-n1cnc(C)c1,6.92
13,COc1nc(-c2nc3n(n2)CCC[C@@H]3c2cc(N(CC3CC3)CC3CC3)ccc2Cl)ccc1-n1cnc(C)c1,8.40
14,CC(C)CC(C(=O)O)c1cc(-c2ccc(C(F)(F)F)cc2)cc(-c2cc(C(F)(F)F)cc(C(F)(F)F)c2)c1 (racemic),7.10
15,CC(C(=O)O)c1ccc2c(c1)[nH]c1ccc(Cl)cc12 (centres undefined) [CARPROFEN],4.12
16,COc1cc(Nc2nc(Cc3ccc(Cl)cc3)c(CO)s2)ccc1-n1cnc(C)c1,6.47
17,CC(C)CC(C(=O)O)c1cc(Cl)c(OCC2CC2)c(-c2ccc3nonc3c2)c1 (centres undefined),6.56
18,COCCN(Cc1cccc2ccccc12)C(=O)/C=C/c1ccc(-n2cnc(C)c2)c(OC)c1,7.22
19,COc1cc(Nc2nc3c(c(Cc4ccccc4)n2)CN(CCO)CC3)ccc1-n1cnc(C)c1,7.60

row,Structure (SMILES),pIC50
1,COc1cc(NC(=O)NC(C)Cc2ccc(F)cc2)ccc1-c1ccnc(C)c1 (centres undefined),6.88
2,COc1cc(C2CN(C(C)=O)CC3(CCCN(C(C)c4ccc(F)cc4)C3=O)C2)ccc1-n1cnc(C)c1 (centres undefined),< 6.70
3,COc1ccc2c(c1)c(CC(=O)O)c(C)n2C(=O)c1ccc(Cl)cc1 [INDOMETHACIN],4.60
4,CC(C)CCN(Cc1cc(-c2ccc(C(F)(F)F)cc2)cc(C(CC(C)C)C(=O)O)c1)Cc1ccc(F)c(F)c1 (centres undefined),7.19
5,CC(C)CC[C@H](c1ccc(C(F)(F)F)cc1)N1CC[C@@H](CC(=O)O)C(F)(F)[C@H]1c1ccc(C(F)(F)F)cc1,6.15
6,COc1cc(Nc2cccc3c2nc(-c2ccc(F)cc2)n3C(C)C)ccc1-c1ccnc(C)c1,7.41
7,CC(C)CC(C(=O)O)c1cc(Cl)c(OCC2CC2)c(-c2ccc(C(F)(F)F)cc2)c1 (centres undefined),7.16
8,COc1cc(/C=C/c2nc3n(n2)CCC[C@@H]3c2ccccc2)ccc1-n1cnc(C)c1,7.96
9,CC(C)CC(C(=O)O)c1cc(-c2ccc(C(F)(F)F)cc2)cc(C2CCCC(C(F)(F)F)N2Cc2ccc(C(F)(F)F)cc2)c1 (centres undefined),6.51
10,COc1ccccc1NC(=O)Nc1ccc(-c2ccnc(C)c2)c(OC)c1,5.48
11,CC(C)CC(C(=O)O)c1cc(-c2ccc(C(F)(F)F)cc2)cc(C2CCC(C(F)(F)F)N(c3cc(F)cc(C(F)(F)F)c3)C2)c1 (centres undefined),6.51
12,CCCCCCCCCCn1c2ccc(Cl)cc2c2ccc(C(C)C(=O)O)cc21 (centres undefined),5.54
13,Cc1cn(-c2ccc(Nc3ncc4c(n3)C(c3ccccc3)CCC4)cc2F)cn1 (centres undefined),6.89
14,CC(C)CC(C(=O)O)c1cc(-c2ccc(C(F)(F)F)cc2)cc(C2CCCC(C(F)(F)F)N2C)c1 (centres undefined),6.38
15,COc1nc(/C=C/c2nc3n(n2)CCC[C@H]3c2ccccc2C(F)(F)F)ccc1-n1cnc(C)c1 [E-2212],7.77
16,CC(C)CC(C(=O)O)c1cc(CCc2cc(F)cc(F)c2)cc(-c2ccc(C(F)(F)F)cc2)c1 (centres undefined),6.39
17,COc1cc(Nc2nc3c(c(COC4CCCC4)n2)COCC3)ccc1-n1cnc(C)c1,7.66
18,CC(C)CC(C(=O)O)c1cc(CCc2ccc(-c3ccccc3)cc2)cc(-c2ccc(Cl)c(C(F)(F)F)c2)c1 (centres undefined),6.68

# More lines, now with the values ahead:
row,pIC50,Structure (SMILES)
1,5.65,COc1cc(-c2cn(C(F)(F)c3ccc(C(F)(F)F)cc3)nn2)ccc1-n1cnc(C)c1
2,8.22,COc1nc(-c2nc3n(n2)CCC[C@@H]3c2cc(N(CC3CC3)CC(F)(F)F)ccc2Cl)ccc1-n1cnc(C)c1
3,8.10,COc1cc(C)c(Nc2nc(-c3ccc(-n4cnc(C)c4)c(OC)n3)n[nH]2)cc1C(C)C
4,< 6.70,COc1cc(C2=NOC3(CCCN(C(C)c4ccc(F)cc4)C3=O)C2)ccc1-n1cnc(C)c1 (centres undefined)
5,5.51,COc1cc(Nc2c(OC)cnn(C(C)c3ccccc3)c2=O)ccc1-n1cnc(C)c1 (centres undefined)
6,6.46,COc1cc(Nc2ccnn(Cc3ccc(F)cc3)c2=O)ccc1-n1cnc(C)c1
7,7.92,COCc1cc(F)ccc1[C@H]1CCCn2nc(/C=C/c3ccc(-n4cnc(C)c4)c(OC)c3)nc21
8,6.08,COc1cc(Nc2ncc3c(n2)C(c2ccccc2)CCC3)ccc1-n1cnc(C)c1 (centres undefined)
9,7.15,COc1cc(Nc2nc(C)cc(Nc3ccc(Cl)cc3)n2)ccc1-n1cnc(C)c1
10,7.68,COc1cc(-c2cn([C@@H]3CCc4c(C)cc(C)cc4N(CC(F)(F)F)C3=O)nn2)ccc1-n1cnc(C)c1
11,7.08,COc1cc(-c2cn(C3CCc4c(F)cccc4N(CC(F)(F)F)C3=O)nn2)ccc1C#Cc1ccnc(C)c1 (centres undefined)
12,7.48,COc1cc(/C=C2\CC[C@H]3CCC[C@@H](c4cc(F)c(F)c(F)c4)N3C2=O)ccc1-n1cnc(C)c1
13,7.96,COc1cc(C)c(Cc2nc(-c3ccc(-n4cnc(C)c4)c(OC)n3)n[nH]2)cc1C(C)C
14,6.27,COc1cc(-c2cn(C3CCc4c(F)cccc4N(CC(F)(F)F)C3=O)nn2)ccc1Oc1cccnc1 (centres undefined)
15,7.96,COc1cc(/C=C/c2nc3n(n2)CCC[C@H]3c2ccccc2C(F)(F)F)ccc1-n1cnc(C)c1
16,7.85,COc1cc(/C=C/c2nc3n(n2)CCC[C@@H]3c2ccc(F)cc2)ccc1-n1cnc(C)c1
17,< 6.70,COc1cc(C2CC23CCCN(C(C)c2ccc(F)cc2)C3=O)ccc1-n1cnc(C)c1 (centres undefined)

row,pIC50,Structure (SMILES)
1,5.60,COc1cc(C(=O)c2c(OC)cnn(C(C)c3ccccc3)c2=O)ccc1-n1cnc(C)c1 (centres undefined)
2,7.74,COc1cc(/C=C/c2nc(-c3ccccc3)cn2C)ccc1-n1cnc(C)c1
3,5.15,COc1cc(C(O)c2c(OC)cnn([C@@H](C)c3ccc(F)cc3)c2=O)ccc1-n1cnc(C)c1 (some centres undefined)
4,6.70,COc1cc(/C=C2\OC[C@@H]3CCC[C@H](c4ccc(F)cc4)N3C2=O)ccc1-n1cnc(C)c1
5,7.40,COc1cc(Nc2nc3c(s2)CCCC3c2ccccc2)ccc1-n1cnc(C)c1 (centres undefined)
6,7.12,COc1cc(/C=C2\OC(C)(C)CN([C@@H](C)c3ccc(F)cc3)C2=O)ccc1-n1cnc(C)c1
7,7.55,COc1cc(/C=C/c2nc3n(n2)CCC[C@@H]3c2cccc(F)c2)ccc1-n1cnc(C)c1
8,8.30,COc1cc(/C=C2\OC(C)(C)CN([C@H](c3cc(F)c(F)c(F)c3)[C@@H](C)O)C2=O)ccc1-n1cnc(C)c1
9,6.70,COc1cc(/C=C2\CCCN(Cc3cccc(F)c3)C2=O)ccc1-n1cnc(C)c1
10,6.89,COc1cc(Nc2ncn(Cc3cccc(Cl)c3)n2)ccc1-n1cnc(C)c1
11,7.51,COc1cc(/C=C/c2nc3n(n2)CCC[C@@H]3c2ccc(C(F)(F)F)cc2)ccc1-n1cnc(C)c1
12,7.08,COc1cc(-c2cn(CC(=O)N(CC(F)(F)F)c3ccc(F)c(Cl)c3)nn2)ccc1-n1cnc(C)c1
13,6.65,COc1cc(-c2cn(C3CCc4c(F)cccc4N(CC(F)(F)F)C3=O)nn2)ccc1Nc1cccnc1 (centres undefined)
14,6.68,COc1cc(Nc2nc(C)c(Cc3cccc(Cl)c3)s2)ccc1-n1cnc(C)c1
15,6.42,COc1cc(Nc2nc(C)cc(Oc3ccc(Cl)cc3)n2)ccc1-n1cnc(C)c1
16,7.85,COc1cc(/C=C/c2nc3n(n2)CCC[C@@H]3c2cc(F)c(F)c(F)c2)ccc1-n1cnc(C)c1

# Source: ChEMBL document CHEMBL2150877, “γ-Secretase modulators as potential disease modifying anti-Alzheimer's drugs” (J Med Chem, 2011)
